# Laboratory results taken from patent publication US20260028365A1 (BIOGEN MA INC., priority 2022, published 2026).
# Columns and labels:
# JH2 domain of human Tyk2 = JH2 domain of human Tyk2 (Homo sapiens (Human), UniProt P29597); assay: JH2 Biochemical Assay (TR-FRET probe displacement); format: binding; conditions: TR-FRET probe displacement, JH2 domain
# Tyk2 = Tyk2 (Homo sapiens (Human), UniProt P29597); assay: pSTAT4 Cell Assay (MSD, NK92 cells); format: cell-based
# Chain of Tyk2 (P29597 whole entry, the tested form may be a part): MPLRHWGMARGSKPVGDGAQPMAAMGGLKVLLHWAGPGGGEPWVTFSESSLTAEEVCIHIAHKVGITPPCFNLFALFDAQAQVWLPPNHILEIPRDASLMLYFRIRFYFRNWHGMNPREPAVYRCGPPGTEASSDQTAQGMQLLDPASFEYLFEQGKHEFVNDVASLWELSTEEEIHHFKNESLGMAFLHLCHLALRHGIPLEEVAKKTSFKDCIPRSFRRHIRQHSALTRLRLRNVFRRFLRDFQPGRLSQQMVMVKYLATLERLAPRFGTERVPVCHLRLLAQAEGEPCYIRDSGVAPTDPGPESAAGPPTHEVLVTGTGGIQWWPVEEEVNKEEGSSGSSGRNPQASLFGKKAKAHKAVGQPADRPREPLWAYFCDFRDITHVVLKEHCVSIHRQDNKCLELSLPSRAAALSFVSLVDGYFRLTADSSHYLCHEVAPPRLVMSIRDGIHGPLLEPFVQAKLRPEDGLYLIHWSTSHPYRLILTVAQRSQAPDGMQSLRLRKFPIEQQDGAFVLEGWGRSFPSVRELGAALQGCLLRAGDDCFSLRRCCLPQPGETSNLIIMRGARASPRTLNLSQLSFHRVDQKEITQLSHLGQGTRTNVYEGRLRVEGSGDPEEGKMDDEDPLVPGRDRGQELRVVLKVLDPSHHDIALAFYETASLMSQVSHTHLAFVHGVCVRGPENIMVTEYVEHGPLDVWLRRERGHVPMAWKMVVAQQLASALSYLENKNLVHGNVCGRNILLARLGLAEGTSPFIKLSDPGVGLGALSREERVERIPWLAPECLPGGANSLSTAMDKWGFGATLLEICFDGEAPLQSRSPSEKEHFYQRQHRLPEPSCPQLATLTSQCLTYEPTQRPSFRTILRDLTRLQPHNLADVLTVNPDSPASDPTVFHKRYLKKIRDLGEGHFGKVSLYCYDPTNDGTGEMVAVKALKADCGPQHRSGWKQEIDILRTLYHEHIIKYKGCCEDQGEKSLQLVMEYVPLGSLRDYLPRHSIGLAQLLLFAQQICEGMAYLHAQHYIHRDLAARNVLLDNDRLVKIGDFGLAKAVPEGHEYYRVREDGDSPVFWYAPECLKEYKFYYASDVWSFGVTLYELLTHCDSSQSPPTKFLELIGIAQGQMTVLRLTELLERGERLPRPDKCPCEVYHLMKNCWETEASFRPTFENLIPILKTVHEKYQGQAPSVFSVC
# Chain of JH2 domain of human Tyk2 (P29597 575-876): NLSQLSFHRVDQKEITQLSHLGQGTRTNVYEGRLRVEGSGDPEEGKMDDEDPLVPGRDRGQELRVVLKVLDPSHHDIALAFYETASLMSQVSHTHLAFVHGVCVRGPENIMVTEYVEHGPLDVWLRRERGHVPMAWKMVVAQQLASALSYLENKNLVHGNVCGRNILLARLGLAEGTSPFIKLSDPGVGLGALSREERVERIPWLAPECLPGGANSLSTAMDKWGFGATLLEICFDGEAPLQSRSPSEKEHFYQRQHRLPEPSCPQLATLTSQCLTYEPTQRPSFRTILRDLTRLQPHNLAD
SMILES,IC50 (JH2 domain of human Tyk2) [nM],IC50 (Tyk2) [nM]
"CCc1cc(Nc2cc(NC(C)=O)ncc2-c2cnc(C#N)cn2)nc(C(C)(F)F)n1 [Example 864, N-(5-(5-cyanopyrazin-2-yl)-4-((2-(1,1-difluoroethyl)-6-ethylpyrimidin-4-yl)amino)pyridin-2-yl)acetamide]",≤ 10,10 to 100
"CCc1cc(Nc2cc(NC(C)=O)ncc2-c2ccc(=O)n(C)n2)nc(C(C)(F)F)n1 [Example 865, N-(4-((2-(1,1-difluoroethyl)-6-ethylpyrimidin-4-yl)amino)-5-(1-methyl-6-oxo-1,6-dihydropyridazin-3-yl)pyridin-2-yl)acetamide]",≤ 10,10 to 100
"COCCN(C)c1cnc(-c2cnc(NC(C)=O)cc2Nc2ccnc(C(C)(F)F)n2)cn1 [Example 866, N-(4-((2-(1,1-difluoroethyl)pyrimidin-4-yl)amino)-5-(5-((2-methoxyethyl)(methyl)amino)pyrazin-2-yl)pyridin-2-yl)acetamide]",≤ 10,10 to 100
"COC1CCN(c2cnc(-c3cnc(NC(C)=O)cc3Nc3ccnc(C(C)(F)F)n3)cn2)C1 (stereo not shown) [Example 867, N-(4-((2-(1,1-difluoroethyl)pyrimidin-4-yl)amino)-5-(5-(3-methoxypyrrolidin-1-yl)pyrazin-2-yl)pyridin-2-yl)acetamide]",≤ 10,10 to 100
"COC1(C)CN(c2cnc(-c3cnc(NC(C)=O)cc3Nc3ccnc(C(C)(F)F)n3)cn2)C1 [Example 868, N-(4-((2-(1,1-difluoroethyl)pyrimidin-4-yl)amino)-5-(5-(3-methoxy-3-methylazetidin-1-yl)pyrazin-2-yl)pyridin-2-yl)acetamide]",≤ 10,10 to 100
"CC(=O)Nc1cc(Nc2ccnc(C(C)(F)F)n2)c(-c2cnc(N3CCC4(COC4)C3)cn2)cn1 [Example 869, N-(5-(5-(2-oxa-6-azaspiro[3.4]octan-6-yl)pyrazin-2-yl)-4-((2-(1,1-difluoroethyl)pyrimidin-4-yl)amino)pyridin-2-yl)acetamide]",10 to 100,100 to 1000
"CC(=O)Nc1cc(Nc2ccnc(C(C)(F)F)n2)c(-c2cnc(N3C[C@@H]4C[C@H]3CO4)cn2)cn1 [Example 870, N-(5-(5-((1S,4S)-2-oxa-5-azabicyclo[2.2.1]heptan-5-yl)pyrazin-2-yl)-4-((2-(1,1-difluoroethyl)pyrimidin-4-yl)amino)pyridin-2-yl)acetamide]",≤ 10,10 to 100
"CC(=O)Nc1cc(Nc2ccnc(C(C)(F)F)n2)c(-c2cnc(N3C[C@H]4C[C@@H]3CO4)cn2)cn1 [Example 871, N-(5-(5-((1R,4R)-2-oxa-5-azabicyclo[2.2.1]heptan-5-yl)pyrazin-2-yl)-4-((2-(1,1-difluoroethyl)pyrimidin-4-yl)amino)pyridin-2-yl)acetamide]",≤ 10,10 to 100
"CC(=O)Nc1cc(Nc2ccnc(C(C)(F)F)n2)c(-c2cnc(N3CC4(CCOC4)C3)cn2)cn1 [Example 872, N-(5-(5-(6-oxa-2-azaspiro[3.4]octan-2-yl)pyrazin-2-yl)-4-((2-(1,1-difluoroethyl)pyrimidin-4-yl)amino)pyridin-2-yl)acetamide]",≤ 10,10 to 100
"COC1(C)CN(c2ccc(-c3cnc(NC(C)=O)cc3Nc3ccnc(C(C)(F)F)n3)nn2)C1 [Example 874, N-(4-((2-(1,1-difluoroethyl)pyrimidin-4-yl)amino)-5-(6-(3-methoxy-3-methylazetidin-1-yl)pyridazin-3-yl)pyridin-2-yl)acetamide]",≤ 10,≤ 10
"CC(=O)Nc1cc(Nc2ccnc(C(C)(F)F)n2)c(-c2ccc(N3C[C@@H]4C[C@H]3CO4)nn2)cn1 [Example 876, N-(5-(6-((1S,4S)-2-oxa-5-azabicyclo[2.2.1]heptan-5-yl)pyridazin-3-yl)-4-((2-(1,1-difluoroethyl)pyrimidin-4-yl)amino)pyridin-2-yl)acetamide]",≤ 10,≤ 10
"CC(=O)Nc1cc(Nc2ccnc(C(C)(F)F)n2)c(-c2ccc(N3CC4(CCOC4)C3)nn2)cn1 [Example 877, N-(5-(6-(6-oxa-2-azaspiro[3.4]octan-2-yl)pyridazin-3-yl)-4-((2-(1,1-difluoroethyl)pyrimidin-4-yl)amino)pyridin-2-yl)acetamide]",≤ 10,≤ 10
"CC(=O)Nc1cc(Nc2ccnc(C(C)(F)F)n2)c(-c2ccc(CN3CCCC3)cn2)cn1 [Example 878, N-(4′-((2-(1,1-difluoroethyl)pyrimidin-4-yl)amino)-5-(pyrrolidin-1-ylmethyl)-[2,3′-bipyridin]-6′-yl)acetamide]",≤ 10,≤ 10
"COCCN(C)Cc1ccc(-c2cnc(NC(C)=O)cc2Nc2ccnc(C(C)(F)F)n2)nc1 [Example 879, N-(4′-((2-(1,1-difluoroethyl)pyrimidin-4-yl)amino)-5-(((2-methoxyethyl)(methyl)amino)methyl)-[2,3′-bipyridin]-6′-yl)acetamide]",≤ 10,≤ 10
"CC(=O)Nc1cc(Nc2ccnc(C(C)(F)F)n2)c(-c2ccc(CN3CCOC[C@H]3C)cn2)cn1 [Example 880, (R)-N-(4′-((2-(1,1-difluoroethyl)pyrimidin-4-yl)amino)-5-((3-methylmorpholino)methyl)-[2,3′-bipyridin]-6′-yl)acetamide]",≤ 10,≤ 10
"COC1CCN(Cc2ccc(-c3cnc(NC(C)=O)cc3Nc3ccnc(C(C)(F)F)n3)nc2)C1 (stereo not shown) [Example 881, N-(4′-((2-(1,1-difluoroethyl)pyrimidin-4-yl)amino)-5-((3-methoxypyrrolidin-1-yl)methyl)-[2,3′-bipyridin]-6′-yl)acetamide]",≤ 10,≤ 10
"COC1(C)CN(Cc2ccc(-c3cnc(NC(C)=O)cc3Nc3ccnc(C(C)(F)F)n3)nc2)C1 [Example 882, N-(4′-((2-(1,1-difluoroethyl)pyrimidin-4-yl)amino)-5-((3-methoxy-3-methylazetidin-1-yl)methyl)-[2,3′-bipyridin]-6′-yl)acetamide]",≤ 10,≤ 10
CC(=O)Nc1cc(Nc2ccnc(C(C)(F)F)n2)c(-c2ccc(CNC3CCOCC3)cn2)cn1 [Example 883],≤ 10,≤ 10
"CC(=O)Nc1cc(Nc2ccnc(C(C)(F)F)n2)c(-c2ccc(CN3C[C@@H]4C[C@H]3CO4)cn2)cn1 [Example 885, N-(5-(((1S,4S)-2-oxa-5-azabicyclo[2.2.1]heptan-5-yl)methyl)-4′-((2-(1,1-difluoroethyl)pyrimidin-4-yl)amino)-[2,3′-bipyridin]-6′-yl)acetamide]",≤ 10,≤ 10
"CC(=O)Nc1cc(Nc2ccnc(C(C)(F)F)n2)c(-c2ccc(CN3C[C@H]4C[C@@H]3CO4)cn2)cn1 [Example 886, N-(5-(((1R,4R)-2-oxa-5-azabicyclo[2.2.1]heptan-5-yl)methyl)-4′-((2-(1,1-difluoroethyl)pyrimidin-4-yl)amino)-[2,3′-bipyridin]-6′-yl)acetamide]",≤ 10,≤ 10
"CC(=O)Nc1cc(Nc2ccnc(C(C)(F)F)n2)c(-c2cnc(N3C[C@H]4C[C@@H](C3)O4)cn2)cn1 [Example 887, N-(5-(5-((1R,5S)-6-oxa-3-azabicyclo[3.1.1]heptan-3-yl)pyrazin-2-yl)-4-((2-(1,1-difluoroethyl)pyrimidin-4-yl)amino)pyridin-2-yl)acetamide]",≤ 10,10 to 100
"CC(=O)Nc1cc(Nc2ccnc(C(C)(F)F)n2)c(-c2cnc(N3CC4(COC4)C3)cn2)cn1 [Example 888, N-(5-(5-(2-oxa-6-azaspiro[3.3]heptan-6-yl)pyrazin-2-yl)-4-((2-(1,1-difluoroethyl)pyrimidin-4-yl)amino)pyridin-2-yl)acetamide]",≤ 10,100 to 1000
"CC(=O)Nc1cc(Nc2ccnc(C(C)(F)F)n2)c(-c2ccc(CN3CC4(CCOC4)C3)cn2)cn1 [Example 889, N-(5-((6-oxa-2-azaspiro[3.4]octan-2-yl)methyl)-4′-((2-(1,1-difluoroethyl)pyrimidin-4-yl)amino)-[2,3′-bipyridin]-6′-yl)acetamide]",≤ 10,≤ 10
"CC(=O)Nc1cc(Nc2ccnc(C(C)(F)F)n2)c(-c2ccc(N3CCC4(COC4)C3)nn2)cn1 [Example 890, N-(5-(6-(2-oxa-6-azaspiro[3.4]octan-6-yl)pyridazin-3-yl)-4-((2-(1,1-difluoroethyl)pyrimidin-4-yl)amino)pyridin-2-yl)acetamide]",≤ 10,≤ 10
"CCc1cc(Nc2cc(NC(C)=O)ncc2-c2cnc(CN3CCCC3)cn2)nc(C(C)(F)F)n1 [Example 893, N-(4-((2-(1,1-difluoroethyl)-6-ethylpyrimidin-4-yl)amino)-5-(5-(pyrrolidin-1-ylmethyl)pyrazin-2-yl)pyridin-2-yl)acetamide]",≤ 10,≤ 10
"CCc1cc(Nc2cc(NC(C)=O)ncc2-c2cnc(CN3C[C@@H]4C[C@H]3CO4)cn2)nc(C(C)(F)F)n1 [Example 894, N-(5-(5-(((1S,4S)-2-oxa-5-azabicyclo[2.2.1]heptan-5-yl)methyl)pyrazin-2-yl)-4-((2-(1,1-difluoroethyl)-6-ethylpyrimidin-4-yl)amino)pyridin-2-yl)acetamide]",≤ 10,≤ 10
"CCc1cc(Nc2cc(NC(C)=O)ncc2-c2cnc(CN(C)C)cn2)nc(C(C)(F)F)n1 [Example 895, N-(4-((2-(1,1-difluoroethyl)-6-ethylpyrimidin-4-yl)amino)-5-(5-((dimethylamino)methyl)pyrazin-2-yl)pyridin-2-yl)acetamide]",≤ 10,≤ 10
"COC(C)(C)c1cnc(-c2cnc(NC(C)=O)cc2Nc2ccnc(C(C)(F)F)n2)cn1 [Example 896, N-(4-((2-(1,1-difluoroethyl)pyrimidin-4-yl)amino)-5-(5-(2-methoxypropan-2-yl)pyrazin-2-yl)pyridin-2-yl)acetamide]",≤ 10,10 to 100
"CCc1cc(Nc2cc(NC(C)=O)ncc2-c2cnc(C3COCCO3)cn2)nc(C(C)(F)F)n1 (stereo not shown) [Example 898, N-(5-(5-(1,4-dioxan-2-yl)pyrazin-2-yl)-4-((2-(1,1-difluoroethyl)-6-ethylpyrimidin-4-yl)amino)pyridin-2-yl)acetamide]",≤ 10,≤ 10
